US5635510A, “Substituted pyrrolidin-3-yl-alkyl-piperidines” (Merrell Pharmaceuticals Inc., priority 1994, dated 1997)

Key:
[1] = molecular target: T1, human jejunal NK2 receptor (Homo sapiens, UniProt P21452); assay: Antagonism of iodinated neurokinin A binding to NK2 receptor, HSKR-1 cells (mouse 3T3 fibroblasts expressing the human jejunal NK2 receptor); details: NK-2 IC50, HSKR-1 cells, 125I-neurokinin A, mean of several experiments
T1 construct: expressed in transfected cells; host or cells: HSKR-1 cells (mouse 3T3 fibroblasts)
T1 sequence (P21452 1-398): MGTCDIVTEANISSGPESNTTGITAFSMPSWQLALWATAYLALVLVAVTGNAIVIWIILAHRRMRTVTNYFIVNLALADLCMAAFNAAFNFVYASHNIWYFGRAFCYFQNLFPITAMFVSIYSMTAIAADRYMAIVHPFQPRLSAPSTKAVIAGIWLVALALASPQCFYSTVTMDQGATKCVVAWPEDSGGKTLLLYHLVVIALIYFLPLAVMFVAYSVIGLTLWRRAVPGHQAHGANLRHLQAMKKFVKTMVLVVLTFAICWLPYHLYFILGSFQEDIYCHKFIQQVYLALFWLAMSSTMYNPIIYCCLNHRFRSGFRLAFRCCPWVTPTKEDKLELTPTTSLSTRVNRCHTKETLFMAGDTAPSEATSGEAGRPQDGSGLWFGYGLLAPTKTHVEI
Experimental: (§1) ANTAGONISM OF IODINATED TACHYKININ BINDING TO NK1 AND NK2
(§2) RECEPTORS BY PUTATIVE ANTAGONISTS
(§3) The NK1 receptor affinity of proposed tachykinin antagonists was evaluated in guinea pig lungs (Keystone Biologicals, Cleveland, OH), affinity for the NK2 receptor evaluated in HSKR-1 cells (which are mouse 3T3 fibroblasts expressing the human jejunal NK2 receptor) and NK-3 receptor affinity was evaluated in freshly collected guinea pig cerebral cortex. Tissues or cells were homogenized with a Polytron in 15 volumes of 50 mM Tris-HCl buffer (pH 7.4, 4° C.) and centrifuged. The pellet was resuspended in Tris-HCl buffer and was centrifuged; the pellet was washed twice by resuspension. The final pellet was resuspended at a concentration of 40 mg/ml for tissues (guinea pig lung and cerebral cortex) and 20 mg/ml for cells in incubation buffer and remained at room temperature for at least 15 min prior to use. Receptor binding was initiated by addition of 250 ul membrane preparation in duplicate to 0.1 nM of the following radioligands: ^125 I-Bolton Hunter Lys-3 labeled substance P; ^125 iodohistidyl-1-neurokinin A; and ^125 I-Bolton Hunter labeled Lys-4 eledoisin in a final volume of 500 ul of buffer containing 50 mM Tris-HCl (pH 7.4 at room temperature), 0.1% bovine serum albumin, 2 mM MnCl2, 40 ug/ml bacitracin, 4 μg/ml leupeptin and chymostatin, 1 μM thiorphan and various doses of the putative tachykinin antagonists. Incubations were performed at room temperature for 90 min (NK1 receptor assays) or 2 hr (NK2 and NK3 receptor assays); binding was terminated by addition of 50 mM Tris-HCl buffer (pH 7.4, 4° C.) and filtration under vacuum through GF/B filters presoaked with 0.1% polyethyleneimine (NK1 receptor assays) or 0.5% bovine serum albumin (NK2 and NK3 receptor assays). Filter bound radioactivity was quantitated in a gamma counter. Nonspecific binding was defined as binding in the presence of 1 μM substance P, neurokinin A, or eledoisin. Specific binding was calculated by subtracting nonspecific binding from total binding. Competition of iodinated SP, NKA, or eledoisin binding by test compounds or standards was expressed as a percentage of this maximum competition. IC50 values (concentration required to inhibit 50% of receptor binding) were generated for each of the test compounds by nonlinear regression using an iterative curve fitting program (GraphPAD Inplot, San Diego, Calif.).

NK-3 receptor = molecular target: T2, NK-3 receptor (Cavia porcellus, UniProt P30098); assay: Antagonism of iodinated eledoisin binding to NK3 receptor, guinea pig cerebral cortex; details: NK-3 IC50, guinea pig cerebral cortex, 125I-eledoisin, mean of several experiments
T2 construct: evaluated in freshly collected guinea pig cerebral cortex; from tissue; host or cells: guinea pig cerebral cortex
T2 sequence (P30098 1-440): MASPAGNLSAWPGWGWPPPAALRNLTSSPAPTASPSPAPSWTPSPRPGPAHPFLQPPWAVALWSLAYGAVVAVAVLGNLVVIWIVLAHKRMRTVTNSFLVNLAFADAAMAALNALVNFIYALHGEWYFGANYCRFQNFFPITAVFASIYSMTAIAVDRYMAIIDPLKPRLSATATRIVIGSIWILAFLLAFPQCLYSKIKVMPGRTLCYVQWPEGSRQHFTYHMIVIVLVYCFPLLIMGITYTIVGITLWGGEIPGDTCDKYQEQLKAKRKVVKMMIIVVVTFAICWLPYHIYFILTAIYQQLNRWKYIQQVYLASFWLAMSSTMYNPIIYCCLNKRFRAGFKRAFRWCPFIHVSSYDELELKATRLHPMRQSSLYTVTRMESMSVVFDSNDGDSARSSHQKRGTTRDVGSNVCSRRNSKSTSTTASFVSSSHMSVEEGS
Experimental: as §1, §2
as §3, with “Nonspecific binding was defined as binding in the presence of 1 μM substance P, neurokinin A, or eledoisin.” left out, “IC50 values (concentration required to inhibit 50% of receptor binding) were generated for each of the test compounds by nonlinear regression using an iterative curve fitting program (GraphPAD Inplot, San Diego, Calif.).” left out

NK1 receptor = molecular target: T3, NK1 receptor (Cavia porcellus, UniProt P30547); assay: Antagonism of iodinated substance P binding to NK1 receptor, guinea pig lung; details: NK-1 IC50, guinea pig lung, 125I-substance P, mean of several experiments
T3 construct: evaluated in guinea pig lungs; tissue Keystone Biologicals, Cleveland, OH; host or cells: guinea pig lung
Experimental: as §1, §2, §3

T3 sequence (P30547 whole entry): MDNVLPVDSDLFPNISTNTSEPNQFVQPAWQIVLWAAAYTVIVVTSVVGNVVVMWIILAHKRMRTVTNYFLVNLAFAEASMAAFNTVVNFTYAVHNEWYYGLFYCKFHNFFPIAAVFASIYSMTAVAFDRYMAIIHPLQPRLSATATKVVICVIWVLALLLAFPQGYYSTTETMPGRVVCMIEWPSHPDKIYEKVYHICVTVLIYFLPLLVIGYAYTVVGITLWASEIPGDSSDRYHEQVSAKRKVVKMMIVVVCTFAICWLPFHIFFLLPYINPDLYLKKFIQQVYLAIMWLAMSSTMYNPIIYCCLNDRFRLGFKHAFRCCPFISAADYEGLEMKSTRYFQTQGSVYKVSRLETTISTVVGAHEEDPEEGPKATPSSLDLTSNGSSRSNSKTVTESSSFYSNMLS

COc1cc(C(=O)N2CCC(CCN3CCC(C(N)=O)(c4ccccc4)CC3)(c3ccc(Cl)c(Cl)c3)C2)cc(OC)c1OC (single isomer, unassigned; (-)) [Example 21, (-)-1-[2-[3-(3,4-dichlorophenyl)-1-(3,4,5-trimethoxy-benzoyl)-pyrrolidin-3-yl]-ethyl]-4-phenyl-piperidine-4-carboxylic acid amide] showed an IC50 [1] of 760 nM, an IC50 (NK-3 receptor) of 2300 nM and an IC50 (NK1 receptor) of 183 nM.
